Test system: eIF2-GTP-Met-tRNAi ternary complex
Test: Ternary complex assay (dual luciferase, firefly/renilla ratio) in stable KLN-tTA/pBISA-DL(ATF-4) cells; HTS and hit confirmation
Assay type: cell-based, mouse
Set-up: Activity 10 uM / Activity 2.5 uM / Activity 5 uM: unit not given here
Conditions: confirmed hits of the screen (Table 5); for Activity 2.5 uM: compound at 2.5 uM; for Activity 10 uM: compound at 10 uM; for Activity 5 uM: compound at 5 uM

SMILES | Activity 2.5 uM | Activity 10 uM | Activity 5 uM
CCOC(=O)c1ccc(Nc2nc3ccccc3o2)cc1 [Compound 114995] | 2.69 | 3.43 | 
c1ccc(N=Nc2ccc[nH]2)cc1 [Compound 115157] |  | 40.7 | 7.1
Cc1ccc([P+](Cc2ccccc2)(c2ccccc2)c2ccc(C)cc2)cc1 [Compound 116685] |  | 4.5 | 1.9
CN1c2ccc(Br)c[c]2[Sn]([CH3])([CH3])[c]2cc(Br)ccc21 [Compound 118026] |  | 40.338 | 37.512
CN1c2cccc[c]2[Sn]([CH3])([CH3])[c]2ccccc21 [Compound 118028] |  | 4.1 | 
CSC1=CC(=O)C=C(C)C1=O [Compound 119026] |  | 12.6 | 4
CCN1/C(=C\c2ccc3cc(C)ccc3[n+]2CC)[Se]c2ccccc21.[I-] [Compound 119675] | 5.52 | 8.78 | 
Oc1ccccc1/C=N\N=C\c1ccco1 [Compound 119688] |  | 3.9 | 2.45
CC(C)c1ccc(/C=C2\C=Cc3ccccc32)cc1 [Compound 120440] |  | 3.8 | 2.3
CC(=O)Oc1ccccc1/C=C/NC(=O)OC(C)(C)C [Compound 122241] |  | 5 | 3.2
CCCCCCCCCCCCCCCCCC[n+]1cccc(C(=O)c2ccccc2)c1.[Br-] [Compound 122844] | 1.77 | 13.27 | 
CCCCCCCC(=O)[O][Hg][c]1ccccc1 [Compound 122854] |  | 3.2 | 
CC(C)=CCC1=CC(=O)c2ccccc2C1=O [Compound 123507] |  | 10.5 | 2.41
CN(C)CC1CC2C3CC=C4CC(O)CCC4(C)C3CCC2(C)C1=O (stereo not drawn) [Compound 124738] | 0.79 | 3.7 | 
O=C(CCl)Nc1ccc(O)c2ccccc12 [Compound 125369] | 1.08 | 9.98 | 
CCC[CH2][Sn]([CH2]CCC)([CH2]CCC)[CH2]C(C)(C)c1ccccc1 [Compound 126650] | 0.64 | 8.04 | 
CCOC(=N)c1cn(C2OC(CO)C(O)C2O)c2nc[nH]c(=O)c12.Cl (stereo not drawn) [Compound 128665] | 17.83 | 3.18 | 
O=[N+]([O-])c1cc(Cl)ccc1NC(Nc1ccc(Cl)cc1[N+](=O)[O-])C(Cl)(Cl)Cl [Compound 130140] | 0.74 | 19.67 | 
CC(=O)Oc1ccc(N(CCCl)CCCl)cc1OC(C)=O [Compound 130216] | 0.51 | 4.77 | 
CCCCCc1[nH]nc(C(=O)OC)c1N=NN1CCOCC1 [Compound 131237] | 0.87 | 3.3 | 
c1ccc(-c2ccc3c4ccccc4ccn23)cc1 [Compound 131464] | 3.63 | 3.99 | 
CC[Si](CC)(CC)[Si](c1ccccc1)(c1ccccc1)c1ccccc1 [Compound 131584] | 0.89 | 7.95 | 

SMILES | Activity 2.5 uM | Activity 10 uM | Activity 5 uM
N=C(N)c1cn(C2OC(CO)C(O)C2O)c2ncnc(N)c12 (stereo not drawn) [Compound 131663] | 7 | 8.18 | 
COc1ccc(Cc2cncc3c(O)c(OC)ccc23)cc1O [Compound 131747] | 2.54 | 3.25 | 
CCCCCCCCCCCCOC(=O)c1cc(O)c(O)c(O)c1 [Compound 133463] |  | 4.63 | 8.8
Nc1c(Br)cc2c([nH]c(=O)c3cc(Cl)ccc32)c1Br [Compound 134404] | 5.44 | 12.72 | 
Cl.Clc1ccc(C2NC(c3ccc(Cl)cc3)NC(c3ccc(Cl)cc3)N2)cc1 (stereo not drawn) [Compound 135155] | 0.94 | 7.19 | 
O=S(=O)(c1ccccc1)N1CC2CC(Br)C(Br)CC21 (stereo not drawn) [Compound 135331] |  | 31.606 | 15.388
C(C[P+](c1ccccc1)(c1ccccc1)c1ccccc1)=C(c1ccccc1)c1ccccc1 [Compound 135741] |  | 7.226 | 8.605
CN1N=C([P+](c2ccccc2)(c2ccccc2)c2ccccc2)CC1(c1ccccc1)c1ccccc1.[I-] [Compound 135744] |  | 21.9 | 7
CCOC(=O)CN1N=C([P+](c2ccccc2)(c2ccccc2)c2ccccc2)CC1(c1ccccc1)c1ccccc1.[Br-] [Compound 135745] |  | 6.5 | 3.2
O=[N+]([O-])c1ccccc1N/N=C\c1c[nH]c2ccccc12 [Compound 135854] | 3.56 | 5.75 | 
COc1cccc2c1n([O-])c1cccc(=O)c-1[n+]2[O-].COc1cccc2c1n([O-])c1cccc(=O)c-1[n+]2[O-].[Cu+2] [Compound 136768] |  | 3.271 | 4.668
CCCN(CCC)N=Nc1c(-c2ccccc2)n[nH]c1-c1ccccc1 [Compound 136886] |  | 28.5 | 2.5
CCCCN(C)N=Nc1c(-c2ccccc2)n[nH]c1-c1ccccc1 [Compound 136889] |  | 16.7 | 3.9
CC(=O)Oc1c2c(c(CC=C(C)C)c3c1C(=O)C1=CC4CC5C(C)(C)OC(C/C=C(/C)C(=O)O)(C4=O)C15O3)OC(C)(CCC=C(C)C)C=C2 (stereo not drawn) [Compound 139221] |  | 9 | 2.1
CCCCCCCCCCCCCCNC(=O)C[N+](C)(C)Cc1ccccc1.[Cl-] [Compound 141112] | 0.98 | 3.76 | 
N#Cc1ncc(Cl)cc1[N+](=O)[O-] [Compound 141226] | 1.05 | 3.5 | 
O=C(Cc1ccccc1)c1ccc2c3c(ccc([N+](=O)[O-])c13)CC2 [Compound 142606] | 16.57 | 34.1 | 
CO[C@H]1/C=C/O[C@@]2(C)Oc3c(C)c(O)c4c(O)c(c(/C=N/Nc5ccc([N+](=O)[O-])cc5[N+](=O)[O-])c(O)c4c3C2=O)NC(=O)/C(C)=C\C=C\[C@H](C)[C@H](O)[C@@H](C)[C@@H](O)[C@@H](C)[C@H](OC(C)=O)[C@@H]1C [Compound 144126] |  | 7.3 | 1.3
Cl.S=C(N/N=C/c1ccccn1)N/N=C/c1ccccn1 [Compound 146007] |  | 3.4 | 1.8
CC[N+](CC)=c1ccc2nc3c(cc(N)c4ccccc43)oc-2c1.[Cl-] [Compound 146184] | 3.13 |  | 
c1ccc(N/N=C(/CC/C(=N\Nc2ccccc2)c2ccccc2)c2ccccc2)cc1 [Compound 146216] | 2.73 | 5.04 | 
CC(C)(C)C[CH2][Hg][Cl] [Compound 146249] | 3.04 |  | 

SMILES | Activity 2.5 uM | Activity 10 uM | Activity 5 uM
CCCCCCCCCCCc1n(Cc2ccccc2)c2ccccc2[n+]1C.[Br-] [Compound 148342] |  | 19.7555 | 14.51
CCCCSC1=CC(=O)c2ccccc2C1=O [Compound 149109] | 18.18 |  | 
COc1cccc2c1C(=O)c1c(O)c3c(c(O)c1C2=O)C[C@@](O)(C(=O)COC(C)=O)C[C@@H]3OC1CC(N)C(O)C(C)O1.Cl (stereo partly drawn) [Compound 149581] |  | 4.3 | 3.5
OC(Br)C1C(c2ccccc2)N1C1CCCCC1 (stereo not drawn) [Compound 150279] | 0.62 | 3.9 | 
Br.O=C(/C(=C\c1ccccc1)CN1CCOCC1)c1ccc(Br)cc1 [Compound 150311] |  | 39.7 | 36.67
O=C(/C=C(\CN1CCCCC1)c1ccccc1)c1ccccc1 [Compound 150320] |  | 16.4 | 19.9
Cc1ccc2c(c1)SCc1c-2[nH]c2ccccc12 [Compound 150787] | 2.94 | 5.6 | 
CC(N)c1ccc(OCCOc2ccc(C(C)(C)CC(C)(C)C)cc2)cc1 (stereo not drawn) [Compound 151117] | 0.85 | 12.07 | 
CC(C)(C)CC(C)(C)c1ccc(OCCOc2ccc(C(=O)Nc3ccc([N+](=O)[O-])cc3)cc2)cc1 [Compound 151119] | 0.72 | 6.62 | 
CCCCCC[N+](CCCCCC)(CCCCCC)CCCCCC.O=C([O-])c1ccccc1 [Compound 152111] |  | 10.391 | 10.85
CCCCCCCCCCCCCCC[N+](C)(C)C.[Cl-] [Compound 155015] | 2.19 | 3.73 | 
CN(C)c1ccc(C(C[N+](=O)[O-])(c2ccc(N(C)C)cc2)c2ccc(N(C)C)cc2)cc1 [Compound 156572] |  | 7.9345 | 7.884
O=C(Nc1ccccc1O)/C(Cl)=C/Cl [Compound 157236] | 0.75 | 3.4 | 
CCOC(=O)c1[nH]c(-c2ccc(OC)cc2)c(C(=O)OCC)c1-c1ccccc1 [Compound 157306] | 1.77 | 3.94 | 
c1ccc2c(c1)O[As](O[As]1Oc3ccccc3O1)O2 [Compound 157382] | 0.68 | 9.04 | 
Cc1cc(C)c(C(=O)Oc2ccc3ccccc3c2)c(C)c1 [Compound 157507] | 2.07 | 3.33 | 
NNc1nc2ccc([N+](=O)[O-])cc2s1 [Compound 158091] | 1.66 | 4.83 | 
O=C(Nc1ccc2ccccc2c1)c1ccc(Cl)cc1Cl [Compound 158959] | 3.2 | 4.01 | 
c1ccc2ncc(-c3ccc4ccccc4n3)cc2c1 [Compound 159209] |  | 8.5 | 4.3
CC1=C(Br)C(=O)C(c2c(C)cc(C)c(Br)c2C)=C(Br)C1=O [Compound 159569] |  | 5.804 | 3.21
